Measured values taken from PubChem BioAssay AID1919000 (Molecular Pharmacology Branch, DTP, NCI, 2023).
“And” between values parts separate entries of the source, which are not always exact repeats. Equal values may be shown once. Blank lines part the entries; values can stand above or below the molecule they belong to.

Test system: 653999-131-R-J2-PDC complex spheroids, growth % test/control
Assay: Anticancer human tumor 653999-131-R-J2-PDC patient-derived lung adenocarcinoma cell line growth inhibition [AhR]
Conditions: for viability, T/C: stronger effect = lower value
How it was run: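 Spheroids combined tumor cells with HUVEC endothelial cells and human MSCs as stroma. AhR antagonists were paired with standard or investigational drugs, each dosed in half-log steps down from near clinical Cmax, or from 10 microM where Cmax was unknown.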

[1] = curve of first compound, second compound 0.1 µM
[2] = curve of first compound, second compound 0.316 µM
[3] = curve of first compound, second compound 1 µM
[4] = curve of first compound, second compound 3.16 µM
[5] = curve of first compound, second compound 10 µM
[6] = second compound 0.1 µM, first compound 0.000949 µM
[7] = second compound 0.1 µM, first compound 0.003 µM
[8] = second compound 0.1 µM, first compound 0.00949 µM
[9] = second compound 0.1 µM, first compound 0.03 µM
[10] = second compound 0.1 µM, first compound 0.0949 µM
[11] = second compound 0.1 µM, first compound 0.3 µM
[12] = second compound 0.316 µM, first compound 0.000949 µM
[13] = second compound 0.316 µM, first compound 0.003 µM
[14] = second compound 0.316 µM, first compound 0.00949 µM
[15] = second compound 0.316 µM, first compound 0.03 µM
[16] = second compound 0.316 µM, first compound 0.0949 µM
[17] = second compound 0.316 µM, first compound 0.3 µM
[18] = second compound 1 µM, first compound 0.000949 µM
[19] = second compound 1 µM, first compound 0.003 µM
[20] = second compound 1 µM, first compound 0.00949 µM
[21] = second compound 1 µM, first compound 0.03 µM
[22] = second compound 1 µM, first compound 0.0949 µM
[23] = second compound 1 µM, first compound 0.3 µM
[24] = second compound 3.16 µM, first compound 0.000949 µM
[25] = second compound 3.16 µM, first compound 0.003 µM
[26] = second compound 3.16 µM, first compound 0.00949 µM
[27] = second compound 3.16 µM, first compound 0.03 µM
[28] = second compound 3.16 µM, first compound 0.0949 µM
[29] = second compound 3.16 µM, first compound 0.3 µM
[30] = second compound 10 µM, first compound 0.000949 µM
[31] = second compound 10 µM, first compound 0.003 µM
[32] = second compound 10 µM, first compound 0.00949 µM
[33] = second compound 10 µM, first compound 0.03 µM
[34] = second compound 10 µM, first compound 0.0949 µM
[35] = second compound 10 µM, first compound 0.3 µM
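Note: spheroids exposed to agents for seven days.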
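Throughout, for viability, T/C: 100% = DMSO vehicle control viability.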

IC50 [1]: > 0.3 µM
IC50 [2]: > 0.3 µM
IC50 [3]: > 0.3 µM
IC50 [4]: > 0.3 µM
IC50 [5]: > 0.3 µM
SMILES: Nc1ncn(C2CC(O)C(CO)S2)c(=O)n1 (configuration not stated) + Cc1cncc(-c2nc(NCCc3c[nH]c4ccccc34)c3ncn(C(C)C)c3n2)c1
viability, T/C [6]: 106%
viability, T/C [7]: 95.4%
viability, T/C [8]: 93.7%
viability, T/C [9]: 90.4%
viability, T/C [10]: 93.2%
viability, T/C [11]: 82.5%
viability, T/C [12]: 102%
viability, T/C [13]: 99.8%
viability, T/C [14]: 101%
viability, T/C [15]: 94.3%
viability, T/C [16]: 88.7%
viability, T/C [17]: 85.7%
viability, T/C [18]: 106%
viability, T/C [19]: 111%
viability, T/C [20]: 121%
viability, T/C [21]: 109%
viability, T/C [22]: 106%
viability, T/C [23]: 103%
viability, T/C [24]: 84.1%
viability, T/C [25]: 87.8%
viability, T/C [26]: 93.4%
viability, T/C [27]: 84.7%
viability, T/C [28]: 66.5%
viability, T/C [29]: 73%
viability, T/C [30]: 65%
viability, T/C [31]: 50.9%
viability, T/C [32]: 58%
viability, T/C [33]: 44%
viability, T/C [34]: 53%
viability, T/C [35]: 52.7%

IC50 [1]: 8.43 µM
IC50 [2]: 9.85 µM
IC50 [3]: > 10 µM
IC50 [4]: 9.8 µM
IC50 [5]: 2.7 µM
SMILES: CC1COCCN1c1cc(C2(S(C)(=N)=O)CC2)nc(-c2ccnc3[nH]ccc23)n1 (configuration not stated) + Cc1cncc(-c2nc(NCCc3c[nH]c4ccccc34)c3ncn(C(C)C)c3n2)c1
viability, T/C (second compound 0.1 µM, first compound 0.0316 µM): 105%
viability, T/C (second compound 0.1 µM, first compound 0.1 µM): 102%
viability, T/C (second compound 0.1 µM, first compound 0.316 µM): 94.7%
viability, T/C (second compound 0.1 µM, first compound 1 µM): 104%
viability, T/C (second compound 0.1 µM, first compound 3.16 µM): 86.1%
viability, T/C (second compound 0.1 µM, first compound 10 µM): 43.7%
viability, T/C (second compound 0.316 µM, first compound 0.0316 µM): 103%
viability, T/C (second compound 0.316 µM, first compound 0.1 µM): 111%
viability, T/C (second compound 0.316 µM, first compound 0.316 µM): 108%
viability, T/C (second compound 0.316 µM, first compound 1 µM): 94.8%
viability, T/C (second compound 0.316 µM, first compound 3.16 µM): 82%
viability, T/C (second compound 0.316 µM, first compound 10 µM): 49.5%
viability, T/C (second compound 1 µM, first compound 0.0316 µM): 107%
viability, T/C (second compound 1 µM, first compound 0.1 µM): 110%
viability, T/C (second compound 1 µM, first compound 0.316 µM): 124%
viability, T/C (second compound 1 µM, first compound 1 µM): 104%
viability, T/C (second compound 1 µM, first compound 3.16 µM): 87.1%
viability, T/C (second compound 1 µM, first compound 10 µM): 55.1%
viability, T/C (second compound 3.16 µM, first compound 0.0316 µM): 101%
viability, T/C (second compound 3.16 µM, first compound 0.1 µM): 111%
viability, T/C (second compound 3.16 µM, first compound 0.316 µM): 112%
viability, T/C (second compound 3.16 µM, first compound 1 µM): 99%
viability, T/C (second compound 3.16 µM, first compound 3.16 µM): 85%
viability, T/C (second compound 3.16 µM, first compound 10 µM): 49.2%
viability, T/C (second compound 10 µM, first compound 0.0316 µM): 71.4%
viability, T/C (second compound 10 µM, first compound 0.1 µM): 70.6%
viability, T/C (second compound 10 µM, first compound 0.316 µM): 64.5%
viability, T/C (second compound 10 µM, first compound 1 µM): 56.1%
viability, T/C (second compound 10 µM, first compound 3.16 µM): 49.6%
viability, T/C (second compound 10 µM, first compound 10 µM): 44.2%

IC50 (curve of compound): > 3 µM
SMILES: CCN(c1cc(-c2ccc(CN3CCOCC3)cc2)cc(C(=O)NCc2c(C)cc(C)[nH]c2=O)c1C)C1CCOCC1
viability, T/C (compound 0.00949 µM): 105% and 101% and 115%
viability, T/C (compound 0.03 µM): 104% and 95.7% and 106%
viability, T/C (compound 0.0949 µM): 114% and 88.5% and 110%
viability, T/C (compound 0.3 µM): 102% and 89.3% and 100%
viability, T/C (compound 0.949 µM): 108% and 98.8% and 96.9%
viability, T/C (compound 3 µM): 94.6% and 104% and 96.3%

IC50 [1]: > 0.3 µM
IC50 [2]: > 0.3 µM
IC50 [3]: > 0.3 µM
IC50 [4]: > 0.3 µM
IC50 [5]: > 0.3 µM
SMILES: Nc1ncn(C2CC(O)C(CO)S2)c(=O)n1 (configuration not stated) + Cc1ccccc1N=Nc1ccc(NC(=O)c2ccnn2C)c(C)c1
viability, T/C [6]: 96.4%
viability, T/C [7]: 98.8%
viability, T/C [8]: 98.2%
viability, T/C [9]: 101%
viability, T/C [10]: 95.3%
viability, T/C [11]: 85.8%
viability, T/C [12]: 98.6%
viability, T/C [13]: 105%
viability, T/C [14]: 105%
viability, T/C [15]: 105%
viability, T/C [16]: 92.8%
viability, T/C [17]: 95.4%
viability, T/C [18]: 107%
viability, T/C [19]: 102%
viability, T/C [20]: 109%
viability, T/C [21]: 109%
viability, T/C [22]: 88.2%
viability, T/C [23]: 88.7%
viability, T/C [24]: 102%
viability, T/C [25]: 100%
viability, T/C [26]: 95.1%
viability, T/C [27]: 94.4%
viability, T/C [28]: 95.8%
viability, T/C [29]: 82%
viability, T/C [30]: 101%
viability, T/C [31]: 103%
viability, T/C [32]: 110%
viability, T/C [33]: 95.6%
viability, T/C [34]: 107%
viability, T/C [35]: 103%
